In data set [1] the test system is Mper1-luc Rat-1 fibroblasts (P2C4). The data set is described as follows: Cellular Circadian Assay (Mper1-luc reporter period lengthening). The data set is classed as cell-based. The settings on record: effective micromolar concentration that induced a 1 hour lengthening of circadian period. From the text: The assay consists of Rat-1 fibroblasts stably expressing an Mper1-luc construct, thus enabling the determination of the rhythmic activation of the Mper1 promoter in living cells by repeatedly estimating luciferase activity by monitoring light-output over several days. The repeated measure format of the assay permits accurate and reproducible assessment of the concentration-dependent effects of CKIε inhibitors on circadian rhythm and provides the nexus for relating CKIε inhibition to circadian period alteration.
Cellular Circadian Assay Experimental Procedures
Stable transfection: Rat-1 fibroblast cultures at 30-50% confluence were co-transfected with vectors containing the Zeocin resistance selectable marker for stable transfection and an mPer-1 promoter-driven luciferase reporter gene. After 24-48 hours, cultures were split onto 96 well plates and maintained in growth media supplemented with 50-100 μg/mL Zeocin (Invitrogen #45-0430) for 10-14 days. Zeocin-resistant stable transfectants were assessed for reporter expression by supplementing growth media with 100 μM luciferin (Promega #E1603) and assaying luciferase activity on a TopCount scintillation counter (Packard Model #C384V00). […] Mper1-luc Rat-1 fibroblasts clone P2C4 was selected for compound testing. […] After synchronization, cultures were rinsed with 100 μL EMEM (Celigro #10-010-CV) for 10 minutes at room temperature. […] Compounds tested for circadian effects were added to CO2-independent media in 0.3% DMSO (final concentration). […] In Vivo luciferase activity was estimated by measuring relative light output on a TopCount scintillation counter (Packard Model #C384V00). Plates were transferred from incubator to reader using an ORCA robotic arm (Beckman Instruments) and SAMI-NT automated scheduling software (Version 3.3; SAGIAN/Beckman Instruments). Data Analysis: Microsoft Excel and XLfit (Version 2.0.9; IDBS) were used to import, manipulate and graph data. Period analysis was performed either by determining the interval between relative light output minima over several days or by Fourier Transform. […] Potency is reported as EC≡t+1h, which is presented as the effective micromolar concentration that induced a 1 hour lengthening of period. The data was analyzed by fitting a hyperbolic curve to the data expressed as period change (y-axis) versus the concentration of test compound (x-axis) in XLfit and the EC[…]t+1h was interpolated from this curve.

The target in a further data set is T1, casein kinase 1ε (Homo sapiens, UniProt P49674).
T1 construct: made in house
T1 sequence (P49674 whole entry): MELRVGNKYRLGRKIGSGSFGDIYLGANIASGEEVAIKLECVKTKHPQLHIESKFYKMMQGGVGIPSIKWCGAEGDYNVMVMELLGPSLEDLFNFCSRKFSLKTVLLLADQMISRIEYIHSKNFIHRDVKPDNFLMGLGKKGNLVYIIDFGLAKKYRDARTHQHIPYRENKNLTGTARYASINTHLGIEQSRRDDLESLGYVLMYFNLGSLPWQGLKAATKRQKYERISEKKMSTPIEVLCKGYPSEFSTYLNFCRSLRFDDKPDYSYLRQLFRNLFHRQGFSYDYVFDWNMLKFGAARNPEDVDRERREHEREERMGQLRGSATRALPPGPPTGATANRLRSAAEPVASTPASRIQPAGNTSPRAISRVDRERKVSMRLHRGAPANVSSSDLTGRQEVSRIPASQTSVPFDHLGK
The data set is described as follows: Casein Kinase Epsilon 33P-ATP Filter Plate Assay. The data set is classed as biochemical. From the text: Casein Kinase Epsilon ^33P-ATP Filter Plate Assay for Screening CK1 Inhibitors Purpose: This assay measures the effect of compounds to inhibit the phosphorylation of the substrate casein by the enzyme casein kinase 1ε using an in vitro ^33P-ATP filtration assay.
Equipment: • Beckman Biomek 2000 Liquid Handling Robot • Beckman Multimek 96 Automated 96 Channel Pipettor • Millipore Vacuum Manifold Basic Kit # MAVM0960R • Titertek Multidrop Liquid Dispenser • Packard TopCount NXT Liquid Scintillation Counter
Enzyme: • Casein Kinase 1ε final concentration 0.58 mg/ml obtained from fermentation and purification processes performed by Aventis Pharmaceuticals Inc., France. The above are stored as 100 μL aliquots at minus 80° C.
Compounds: • Compounds for testing are supplied as frozen 10 mM compound stock dissolved in 100% DMSO. Assay Conditions:
Final total assay volume per well is equal to 50 μL made up as follows: • 5 μL of diluted compound stock ([…], 0.1, 0.01 or 0.001 μM), • 5 μL of dephosphorylated casein final concentration 0.2 μg/μL, • 20 μL of CK1ε final concentration 3 ng/μL, and • 20 μL of γ-^33P-ATP final concentration 0.02 μCi/μL mixed with cold ATP (10 μM final). Methodology: • 1. 500 mL of fresh assay buffer is made: 50 mM Tris pH 7.5, 10 mM MgCl2, 2 mM DTT and 1 mM EGTA • 2. Compounds to be evaluated are obtained as 10 μL of 10 mM stock dissolved in 100% DMSO. Using a Biomek 2000 liquid handling robot, serial dilutions are made to yield 10, 1, 0.1, 0.01 and 0.001 μM final compound dilutions added as 5 μL additions to Falcon U bottom plates. […] A routine screening assay will consist of 32 compounds, which equals 4 assay plates. • 3. Assay plate maps are set up according to the following pattern
• 4. […] Finally 20 μL […] (0.02 μCi/μL)/10 μM cold ATP are added (equals approximately 2×10^6 CPM per well). • 6. The Falcon U-Bottom assay plate containing the above 50 μL reaction volume is vortexed and then incubated at room temperature for 2 hours. • 7. At the end of 2 hours, the reaction is stopped by the addition of 65 μL of ice cold 2 mM cold ATP (made up in assay buffer) to the assay plates using a Beckman Multimek • 8. At the same time 25 μL 100% ice cold TCA made up in distilled H2O is added to a matching number of Millipore MAPH filter plates. • 9. Using a handheld 8-channel pipettor, 100 μL of the reaction mixture is transferred from the Falcon U-Bottom Plate to the Millipore MAPH filter plates presoaked with TCA. • 10. The Millipore MAPH filter plates are mixed gently and allowed to sit at room temperature for at least 30 minutes to precipitate the proteins. • 11. After 30 minutes the filter plates are placed on a Millipore vacuum manifold and filtered at no more than 8 mm Hg as the MAPH filters tend to “air lock” at higher vacuum settings. • 12. The filter plates are sequentially washed and filtered with 2×150 μL 20% TCA, 2×150 μL 10% TCA and 2×150 μL 5% TCA (total of 6 washes per plate/900 μL per well). • 13. Plates are allowed to dry overnight at room temperature. The next day 40 μL Packard Microscint-20 Scintillation Fluid is added per well using a Titertek Multidrop dispenser; the plates are sealed and counted for 2 minutes/well in a Packard Topcount NXT Scintillation Counter (CPM values/well are captured). Calculation: • 1. Counts Per Minute (CPM) data is captured and imported into a proprietary data calculation and archiving database (Activity Base by IDBS version 5.0). • 2. Column 1 for each plate reflects total phosphorylation activity of the enzyme in the absence of any inhibiting compound and thus represents 100%. Column 12 reflects any nonspecific phosphorylation/retained radioactivity activity in the absence of inhibiting compound and enzyme.

We go through 15 molecules from patent US7626027B2, “Substituted 1H-pyrrolo[2,3-c]pyridine-2-carboxamides and related analogs as inhibitors of casein kinase Iε” (Aventis Pharmaceuticals Inc, priority 2003, dated 2009).

Read-outs that look alike come from different tables or passages of the source.

One may read the IC50 as the concentration that inhibits the measured activity by half. One may read the melting point as the temperature, or range, at which the solid turns liquid. `NC(=O)c1[nH]c2cccnc2c1Sc1ccccc1` [Ia-1, 3-Phenylsulfanyl-1H-pyrrolo[3,2-b]pyridine-2-carboxylic acid amide] yielded a melting point of 251 °C. Besides, the “Cell Assay ECΔτ+1h” value in data set [1] turned out to be 0.27 µM. For the same molecule, the IC50 against casein kinase 1ε is 36 nM.
For `NC(=O)c1[nH]c2cccnc2c1Sc1cccc(F)c1` [Ia-2, 3-(3-Fluorophenylsulfanyl)-1H-pyrrolo[3,2-b]pyridine-2-carboxylic acid amide] the same measures were 235 to 237 °C, 0.51 µM and 74 nM.
On the same counts, the results for `NC(=O)c1[nH]c2cccnc2c1Sc1cccc(Cl)c1` [Ia-3, 3-(3-Chlorophenylsulfanyl)-1H-pyrrolo[3,2-b]pyridine-2-carboxylic acid amide] are 246.5 to 248 °C, 0.31 µM and 26 nM.
Regarding `NC(=O)c1[nH]c2cccnc2c1Sc1cccc(Br)c1` [Ia-4, 3-(3-Bromophenylsulfanyl)-1H-pyrrolo[3,2-b]pyridine-2-carboxylic acid amide], the “Cell Assay ECΔτ+1h” value in data set [1] turned out to be 0.12 µM. This molecule also showed a 50% inhibitory concentration (IC50) against casein kinase 1ε of 25 nM.
On the same counts, the results for `NC(=O)c1[nH]c2cccnc2c1Sc1ccccc1Cl` [Ia-5, 3-(2-Chlorophenylsulfanyl)-1H-pyrrolo[3,2-b]pyridine-2-carboxylic acid amide] are 1.13 µM and 6530 nM.
Molecule `NC(=O)c1[nH]c2cccnc2c1Sc1ccc(Cl)cc1` [Ia-6, 3-(4-Chlorophenylsulfanyl)-1H-pyrrolo[3,2-b]pyridine-2-carboxylic acid amide] showed a melting point of 266 °C. For the same molecule, the “Cell Assay ECΔτ+1h” value in data set [1] amounted to 13.8 µM. Moreover, at casein kinase 1ε, the IC50 stood at 491 nM.
`NC(=O)c1[nH]c2cccnc2c1Sc1ccc(Cl)cc1Cl` [Ia-7, 3-(2,4-Dichlorophenylsulfanyl)-1H-pyrrolo[3,2-b]pyridine-2-carboxylic acid amide]: the melting point was found to be 266 °C. Also, the IC50 on casein kinase 1ε was more than 10000 nM.
Take `NC(=O)c1[nH]c2cccnc2c1Sc1ccccc1F` [Ia-8, 3-(2-Fluorophenylsulfanyl)-1H-pyrrolo[3,2-b]pyridine-2-carboxylic acid amide]: in data set [1], the “Cell Assay ECΔτ+1h” value turned out to be 0.75 µM. The same molecule had an IC50 against casein kinase 1ε of 531 nM.
For `NC(=O)c1[nH]c2cccnc2c1Sc1ccccc1C(F)(F)F` [Ia-10, 3-(2-Trifluormethylphenylsulfanyl)-1H-pyrrolo[3,2-b]pyridine-2-carboxylic acid amide], the “Cell Assay ECΔτ+1h” value in data set [1] turned out to be 2.94 µM. For the same molecule, the 50% inhibitory concentration (IC50) at casein kinase 1ε (phosphorylation of casein, 10 μM cold ATP, 2 hours room temperature, * denotes average of 2 or more determinations, read-out: Casein Kinase Iε 33P-ATP Filter Plate Assay IC50) was determined as 2890 nM.
As for `NC(=O)c1[nH]c2cccnc2c1Sc1ccccc1N` [Ia-12, 3-(2-Aminophenylsulfanyl)-1H-pyrrolo[3,2-b]pyridine-2-carboxylic acid amide], the “Cell Assay ECΔτ+1h” value in data set [1] stood at 0.44 µM. Also, inhibition against casein kinase 1ε was half-maximal at 36 nM (IC50).
For `COc1cccc(Sc2c(C(N)=O)[nH]c3cccnc23)c1` [Ia-15, 3-(3-Methoxy-phenylsulfanyl)-1H-pyrrolo[3,2-b]pyridine-2-carboxylic acid amide] the same measures were 1.1 µM and 109 nM.
Consider `NC(=O)c1[nH]c2cccnc2c1Sc1cccc([N+](=O)[O-])c1` [Ia-18, 3-(3-Nitro-phenylsulfanyl)-1H-pyrrolo[3,2-b]pyridine-2-carboxylic acid amide], for which the “Cell Assay ECΔτ+1h” value in data set [1] is more than 10 µM. Further, half-maximal inhibition on casein kinase 1ε (IC50) required 186 nM.
For `Cc1ccc(Sc2c(C(N)=O)[nH]c3cccnc23)cc1` [Ia-20, 3-p-Tolylsulfanyl-1H-pyrrolo[3,2-b]pyridine-2-carboxylic acid amide] the same measures were more than 10 µM and 261 nM.
Turning to `Cc1cccc(Sc2c(C(N)=O)[nH]c3cccnc23)c1` [Ia-22, 3-m-Tolylsulfanyl-1H-pyrrolo[3,2-b]pyridine-2-carboxylic acid amide], the “Cell Assay ECΔτ+1h” value in data set [1] is more than 10 µM. Besides, the half-maximal inhibitory concentration (IC50) against casein kinase 1ε amounted to 73 nM.
On the same counts, the results for `NC(=O)c1[nH]c2cccnc2c1Sc1cccc2cccnc12` [Ia-25, 3-(Quinolin-8-ylsulfanyl)-1H-pyrrolo[3,2-b]pyridine-2-carboxylic acid amide] are 2.26 µM and 1550 nM.
